Measured values reported in publication PMC4425807, “Investigating interactions between phentermine, dexfenfluramine, and 5-HT2C agonists, on food intake in the rat” (Psychopharmacology, 2014).
Read-outs that look alike come from different tables or passages of the source. Marks after values point to notes of the source that are not given here.

Assays:
[1] = test system: food intake in the rat; test: Food intake in food-deprived rats: single-drug dose-responses and isobolographic analysis; format: in vivo; details: PO, 18 h food-deprived rat, 30 min intake measured 1 h after drug; from logarithmic regressions; read-out: ED50, inhibition of food intake
Method: Male Sprague–Dawley rats (Harlan, San Diego, CA) weighing 250–350 g were used for behavioural studies. Upon arrival at the test facility, animals were triple housed within a holding room controlled for humidity, temperature, and light (lights off 1800–0600 hours). Rats received food (2018SX Teklad Rodent Diet) and water ad libitum unless stated otherwise. Over the course of all studies, rats were re-used up to four times, with at least one week of washout between tests. Rats were assigned to treatment groups pseudo-randomly from test to test. One week prior to initial drug testing, all rats were subject to a single food intake test which was identical to all subsequent drug tests, except that all rats received vehicle administration. Group size for all studies, including brain sampling, was eight.
Eighteen hours prior to food intake testing (1600 hours), food was removed from home cages. On the next day, animals were weighed and placed into cages with grid floors at 1000 hours, and allowed to acclimate to these cages for a 90-min period with free access to water and no food. At 1130 hours, rats were injected with compounds via oral gavage. Thirty minutes after injection (1200 hours), animals were allowed access to food. Food was then weighed at 30 min after food exposure (1 h after drug administration). Upon test conclusion, rats were returned to home cages with ad libitum access to food and water.
Doses were selected based upon previous in-house experience with these compounds and ascended in twofold steps. Two subsequent studies were run for each isobologram, with dose–responses of each compound pair run in combination with a fixed, low dose of the other (phentermine 1 mg/kg; AR630 1 mg/kg; dexfenfluramine 0.5 mg/kg; lorcaserin 1 mg/kg). To approximate the true experimental errors in these experiments, a bootstrapping with replacement approach was used (Huber [1981]; Launer and Wilkinson [1979]) in which five data sets were generated from random samples of the measured data points for both the individual dose–responses and for each drug/dose combination. […] A line of additivity with confidence limits was then drawn between the dose–responses of each compound alone.

[2] = Brain drug concentrations 60 min after single oral dose (LC-MS/MS); format: in vivo, rat; details: for concentration at 60 min: brain
Method: In vivo methods employed for pharmacokinetic studies were identical to those described for food intake studies except that after dosing, rats were not placed into new cages with grid floors. At 60 min after dosing (and 30 min after food access), rats were anesthetized with isoflurane, blood was collected via cardiac puncture, and brains were removed from the cranium. Blood samples were dispensed into sodium heparinized vials and capped and stored at 4 °C. Plasma was separated from formed elements in blood by centrifugation (10 min at 3,000×g) and frozen. Brains were rinsed with ice-cold phosphate-buffered saline, blotted dry, weighed, and frozen. Plasma and brain samples were stored at −80 °C prior to bioanalytical analysis.
Brain samples were thawed on ice, placed into 50 mL plastic conical tubes, and two volumes of purified water/gram of brain was added. Brains were homogenized using a mechanical variable speed tissue homogenizer; 50 μL of brain homogenate was transferred to a 1-mL plastic tube. A volume of acetonitrile (200 μL) containing internal standard was added to brain homogenate, mixed by vortex, and centrifuged (15 min at 3,700 rpm). […] Supernatants were analysed for lorcaserin, AR630, phentermine, dexfenfluramine, and the major metabolite of dexfenfluramine, norfenfluramine. Compound concentrations were determined using a LC-MS/MS method. Analytes were separated by reverse phase chromatography (Kinetex 3 × 30 mm, C18, 2.6 μm, 100 Å, HPLC Column, Phenomenex, Torrance, CA) using a binary gradient on a Shimadzu LC system (Shimadzu Corp., Columbia, MD). The gradient consisted of 0.1 % formic acid in water and 0.1 % formic acid in acetonitrile with a flow rate of 650 μL/min.

[3] = target: T1, 5-HT2C (Homo sapiens, UniProt P28335); test: Functional activity at 5-HT2C; format: biochemical; details: internally generated data
T1 sequence (P28335 33-458): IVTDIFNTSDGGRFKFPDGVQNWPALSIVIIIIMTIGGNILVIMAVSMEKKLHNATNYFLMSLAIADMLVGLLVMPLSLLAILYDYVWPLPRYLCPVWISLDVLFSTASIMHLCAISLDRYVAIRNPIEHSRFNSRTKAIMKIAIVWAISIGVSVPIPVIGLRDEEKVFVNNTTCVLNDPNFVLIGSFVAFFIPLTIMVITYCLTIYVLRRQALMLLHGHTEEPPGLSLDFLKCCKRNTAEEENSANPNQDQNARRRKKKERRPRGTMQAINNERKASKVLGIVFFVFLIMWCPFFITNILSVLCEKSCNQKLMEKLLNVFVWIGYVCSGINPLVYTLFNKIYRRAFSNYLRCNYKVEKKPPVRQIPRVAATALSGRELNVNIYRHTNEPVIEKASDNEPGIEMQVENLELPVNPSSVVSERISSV

[4] = target: T2, 5-HT2A (Homo sapiens, UniProt P28223); test: Functional activity at 5-HT2A; format: biochemical; details: internally generated data
T2 sequence (P28223 whole entry): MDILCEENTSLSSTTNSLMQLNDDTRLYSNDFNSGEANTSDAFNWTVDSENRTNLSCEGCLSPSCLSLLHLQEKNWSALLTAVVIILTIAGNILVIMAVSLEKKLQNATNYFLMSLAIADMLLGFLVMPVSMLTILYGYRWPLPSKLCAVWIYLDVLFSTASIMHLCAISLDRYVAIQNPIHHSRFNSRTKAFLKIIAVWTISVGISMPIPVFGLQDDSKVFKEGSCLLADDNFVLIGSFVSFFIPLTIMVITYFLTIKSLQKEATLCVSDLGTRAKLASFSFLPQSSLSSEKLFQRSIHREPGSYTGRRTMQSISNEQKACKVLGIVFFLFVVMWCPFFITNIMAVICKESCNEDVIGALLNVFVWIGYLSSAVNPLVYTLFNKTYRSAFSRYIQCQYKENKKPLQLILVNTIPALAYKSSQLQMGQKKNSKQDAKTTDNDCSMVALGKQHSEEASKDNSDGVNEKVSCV

[5] = target: T3, 5-HT2B (Homo sapiens, UniProt P41595); test: Functional activity at 5-HT2B; format: biochemical; details: internally generated data
T3 sequence (P41595 whole entry, species assumed): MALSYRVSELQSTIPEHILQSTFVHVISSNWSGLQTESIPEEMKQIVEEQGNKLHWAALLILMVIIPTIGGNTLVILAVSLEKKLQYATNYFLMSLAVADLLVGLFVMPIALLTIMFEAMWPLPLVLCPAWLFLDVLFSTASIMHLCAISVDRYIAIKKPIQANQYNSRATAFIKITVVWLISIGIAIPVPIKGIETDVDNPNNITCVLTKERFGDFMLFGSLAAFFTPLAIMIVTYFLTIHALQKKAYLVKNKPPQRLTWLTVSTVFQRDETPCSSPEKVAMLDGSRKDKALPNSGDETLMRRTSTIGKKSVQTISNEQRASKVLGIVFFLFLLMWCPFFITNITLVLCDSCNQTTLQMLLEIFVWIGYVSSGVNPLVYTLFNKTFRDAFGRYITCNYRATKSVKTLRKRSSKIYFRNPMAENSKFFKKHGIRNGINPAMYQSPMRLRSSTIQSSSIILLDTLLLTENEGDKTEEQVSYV

[6] = target: T1, 5-HT2C; test: 125I-DOI binding at 5-HT2C; details: internally generated data
[7] = target: T2, 5-HT2A; test: 125I-DOI binding at 5-HT2A; details: internally generated data
[8] = target: T3, 5-HT2B; test: 125I-DOI binding at 5-HT2B; details: internally generated data
[9] = when administered alone; cited from earlier work
[10] = combining topiramate with phentermine, humans; ref Qsymia Drug Label information; cited from earlier work
[11] = read-out: intrinsic activity (IA)

With `C[C@@H]1CNCCN1c1cc(Cl)ccc1F` [AR630] the ED50 [1] was 4.25 mg/kg, the “Fold-change in brain concentration, combination vs alone” value (shortened to “Fold-change in brain concentration”) ([2]; AR630 1 mg/kg PO with phentermine 1 mg/kg, 60 min, rat) was 1.12 and the concentration at 60 min ([2]; Sprague-Dawley, rat, oral, AR630 1 mg/kg PO with phentermine 1 mg/kg, 60 min, rat, mean ± SEM, read-out: Brain concentration, combination) was 92 ± 25 ng/g. For the same compound, the concentration at 60 min ([2]; Sprague-Dawley, rat, po, 1 mg/kg, AR630 1 mg/kg PO alone, 60 min, rat, mean ± SEM, read-out: Brain concentration, alone) was 82 ± 14 ng/g, the EC50 [3] was 10 nM and the Emax [3, 11] was 100%. For the same compound, the EC50 [4] was 400 nM, the Emax [4, 11] was 60% and the EC50 [5] was 1000 nM. The Emax [5, 11] was < 10%, the Ki [6] was 4 nM and the Ki [7] was 120 nM. The Ki [8] was 100 nM.

`CCN[C@@H](C)Cc1cccc(C(F)(F)F)c1` [Dexfenfluramine, (S)+-fenfluramine] showed an ED50 [1] of 1.44 mg/kg, a concentration at 60 min ([2]; Sprague-Dawley, rat, oral, 0.5 mg/kg, dexfenfluramine 0.5 mg/kg PO alone, 60 min, rat, mean ± SEM, read-out: Brain concentration, alone) of 130 ± 13 ng/g and a concentration at 60 min ([2]; Sprague-Dawley, rat, oral, dexfenfluramine 0.5 mg/kg PO with phentermine 1 mg/kg, 60 min, rat, mean ± SEM, read-out: Brain concentration, combination) of 141 ± 19 ng/g. For the same compound, the “Fold-change in brain concentration” value ([2]; dexfenfluramine 0.5 mg/kg PO with phentermine 1 mg/kg, 60 min, rat) was 1.08.

For `C[C@H]1CNCCc2ccc(Cl)cc21` [Lorcaserin], the ED50 [1] was 1.98 mg/kg, the concentration at 60 min ([2]; Sprague-Dawley, rat, oral, 1 mg/kg, lorcaserin 1 mg/kg PO alone, 60 min, rat, mean ± SEM, read-out: Brain concentration, alone) was 1380 ng/g and the concentration at 60 min ([2]; Sprague-Dawley, rat, oral, lorcaserin 1 mg/kg PO with phentermine 1 mg/kg, 60 min, rat, mean ± SEM, read-out: Brain concentration, combination) was 1440 ng/g. The “Fold-change in brain concentration” value ([2]; lorcaserin 1 mg/kg PO with phentermine 1 mg/kg, 60 min, rat) was 1.05.

For `CC(N)Cc1cccc(C(F)(F)F)c1` (centres unmarked) [Norfenfluramine, norfenfluramine], the “brain concentration of metabolite relative to parent dexfenfluramine” value ([2]; after dexfenfluramine PO, 60 min, rat) was “approximately sixfold”, the “Brain concentration, alone” value ([2]; metabolite norfenfluramine after dexfenfluramine 0.5 mg/kg PO alone, 60 min, rat, mean ± SEM) was 805 ± 50 ng/g and the “Fold-change in brain concentration” value ([2]; metabolite norfenfluramine after dexfenfluramine 0.5 mg/kg PO with phentermine 1 mg/kg, 60 min, rat) was 0.94. For the same compound, the “Brain concentration, combination” value ([2]; metabolite norfenfluramine after dexfenfluramine 0.5 mg/kg PO with phentermine 1 mg/kg, 60 min, rat, mean ± SEM) was 760 ± 27 ng/g.

`CC(C)(N)Cc1ccccc1` [Phentermine] showed an ED50 [1] of 2.45 mg/kg, a Kp at 60 min ([2]; Sprague-Dawley, brain/plasma, oral, phentermine dosed alone or in the various combinations, rat (data not shown), read-out: brain/plasma ratio) of ~13 and a concentration at 60 min ([2]; Sprague-Dawley, rat, oral, 1 mg/kg, phentermine 1 mg/kg PO alone, 60 min, rat, AR630 study, mean ± SEM, read-out: Brain concentration, alone) of 226 ± 32 ng/g. For the same compound, the concentration at 60 min ([2]; Sprague-Dawley, rat, oral, 1 mg/kg, phentermine 1 mg/kg PO alone, 60 min, rat, dexfenfluramine study, mean ± SEM, read-out: Brain concentration, alone) was 298 ± 29 ng/g, the concentration at 60 min ([2]; Sprague-Dawley, rat, oral, 1 mg/kg, phentermine 1 mg/kg PO alone, 60 min, rat, lorcaserin study, mean ± SEM, read-out: Brain concentration, alone) was 298 ± 29 ng/g and the concentration at 60 min ([2]; Sprague-Dawley, rat, oral, phentermine 1 mg/kg PO with AR630 1 mg/kg, 60 min, rat, mean ± SEM, read-out: Brain concentration, combination) was 866 ± 120 ng/g. For the same compound, the concentration at 60 min ([2]; Sprague-Dawley, rat, oral, phentermine 1 mg/kg PO with dexfenfluramine 0.5 mg/kg, 60 min, rat, mean ± SEM, read-out: Brain concentration, combination) was 787 ± 57 ng/g, the concentration at 60 min ([2]; Sprague-Dawley, rat, oral, phentermine 1 mg/kg PO with lorcaserin 1 mg/kg, 60 min, rat, mean ± SEM, read-out: Brain concentration, combination) was 335 ± 18 ng/g and the “Fold-change in brain concentration” value ([2]; phentermine 1 mg/kg PO with AR630 1 mg/kg, 60 min, rat) was 3.80**. The “Fold-change in brain concentration” value ([2]; phentermine 1 mg/kg PO with AR630 1 mg/kg, 60 min, rat, listed as phentermine) was 3.8, the “Fold-change in brain concentration” value ([2]; phentermine 1 mg/kg PO with dexfenfluramine 0.5 mg/kg, 60 min, rat) was 2.60** and the “Fold-change in brain concentration” value ([2]; phentermine 1 mg/kg PO with dexfenfluramine 0.5 mg/kg, 60 min, rat, listed as phentermine) was 2.6. For the same compound, the “Fold-change in brain concentration” value ([2]; phentermine 1 mg/kg PO with lorcaserin 1 mg/kg, 60 min, rat) was 1.12, the “Fold-change in brain concentration” value ([2]; phentermine 1 mg/kg PO with lorcaserin 1 mg/kg, 60 min, rat, listed as phentermine) was 1.1 and the “fraction of dose excreted as unchanged phentermine in urine” value [9] was 70–80%. For the same compound, the “increase in phentermine area under the curve” value [10] was 42%.
